Peptide text beside a SMILES is read from it.
Columns and labels:
[1] = tested on: SPSB2-iNOS interaction (GST-tagged SPRY domain of SPSB2; full-length iNOS from RAW 264.7 lysate); assay: cell lysate inhibition assay, SPSB2-iNOS interaction (GST pull-down, Western blot); format: biochemical, human (SPSB2); conditions: for displacement of full-length iNOS from SPSB2: 10 μM peptide, LPS/IFN-γ-stimulated RAW 264.7 lysate, 2 h, pH 7.5 lysis buffer, GST pull-down, anti-iNOS Western blot
Protocol: (§1) Figure 6 Inhibition of SPSB-iNOS interactions by cR7, cR8, and cR9. Cell lysates from lipopolysaccharide/interferon-γ-stimulated RAW 264.7 cells were incubated with the GST-tagged SPRY domains of (A) SPSB2, (B) SPSB1, and (C) SPSB4 in the absence or presence of cR7, cR8, and cR9. GST-tagged SPRY domain of TRIM25 was used as a negative control. A 9-mer linear peptide (hK9) derived from the iNOS N-terminal region was included as a control. After interaction for 2 h, GST-fusion proteins were recovered via affinity purification using glutathione-sepharose 4B beads. Interaction with full-length iNOS was analyzed by Western blotting with anti-iNOS antibody (upper panels) and equivalent protein input was confirmed by reprobing the membranes with anti-GST antibody (lower panels).
(§2) The preparation of the recombinant His6-tagged SPRY domain of human SPSB2 (UniProtKB accession number Q99619, residues 22-220) has been previously described. Briefly, SPSB2 protein was initially purified using a Ni-NTA column and the amount of the protein was measured using the Bradford method. Either cR7 or cR9, at 1.5-fold molar excess, was then added to the protein and the SPSB2-cR7 and SPSB2-cR9 complexes were purified by gel filtration using a HiLoad 16/600 Superdex 75 column (GE Healthcare, Marlborough, MA, USA) equilibrated against a buffer containing 50 mM Tris-HCl pH 7.5, 150 mM NaCl, 5 mM DTT. To generate the GST-fusion proteins used in the cell lysate inhibition assay, the SPRY domains of human TRIM25 (UniProtKB Q14258, residues 433-630), SPSB2, SPSB1 (UniProtKB Q96BD6, residues 28-232), and SPSB4 (UniProtKB Q96A44, residues 28-232) were inserted into the pGEX-4T-2 vector (GE Healthcare, Marlborough, MA, USA). Protein expression was induced in an LB medium supplemented with 0.1 mM isopropyl β-D-1-thiogalactopyranoside (IPTG) at 18 °C overnight. Cells were harvested and resuspended in PBS, and then lysed using a cell disruptor (JNBIO, Guangzhou, China). Soluble GST-tagged proteins were purified using a glutathione sepharose 4B column prepared with PBS. […]

[2] = molecular target: T1, SPSB2 (His6-tagged SPRY domain of human SPSB2, residues 22-220) (Homo sapiens, UniProt Q99619); assay: isothermal titration calorimetry (ITC), binding to SPSB2; conditions: ITC Kd compared with cR8 Kd reported previously [19]
T1 construct: His6; made in house
T1 sequence (Q99619 22-220): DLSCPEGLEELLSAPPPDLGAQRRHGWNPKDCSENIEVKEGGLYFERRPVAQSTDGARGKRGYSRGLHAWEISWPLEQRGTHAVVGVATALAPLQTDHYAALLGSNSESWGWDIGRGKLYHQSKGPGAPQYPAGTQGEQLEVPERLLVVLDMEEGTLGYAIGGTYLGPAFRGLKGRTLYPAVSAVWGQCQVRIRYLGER
Protocol: as §2, with “overnight.” for “overnight. Cells were harvested and resuspended in PBS, and then lysed using a cell disruptor (JNBIO, Guangzhou, China). Soluble GST-tagged proteins were purified using a glutathione sepharose 4B column prepared with PBS.”
All ITC measurements were performed at 25 °C using iTC200 (Malvern Panalytical, Malvern, UK). […] The dissociation constant (Kd) was calculated, with the error from the Origin-calculated association constant (K) transferred as the same fraction of the primary value.

[3] = tested on: SPSB1-iNOS interaction (GST-tagged SPRY domain of SPSB1; full-length iNOS from RAW 264.7 lysate); assay: cell lysate inhibition assay, SPSB1-iNOS interaction (GST pull-down, Western blot); format: biochemical, human (SPSB1); conditions: for inhibition of SPSB1-iNOS interaction: 1 μM peptide, LPS/IFN-γ-stimulated RAW 264.7 lysate, 2 h, GST pull-down, anti-iNOS Western blot
Protocol: as §1, §2

[4] = tested on: SPSB4-iNOS interaction (GST-tagged SPRY domain of SPSB4; full-length iNOS from RAW 264.7 lysate); assay: cell lysate inhibition assay, SPSB4-iNOS interaction (GST pull-down, Western blot); format: biochemical, human (SPSB4); conditions: for displacement of full-length iNOS from SPSB4: 10 μM peptide, LPS/IFN-γ-stimulated RAW 264.7 lysate, 2 h, GST pull-down, anti-iNOS Western blot
Protocol: as §1, §2

[5] = molecular target: T2, His6-tagged SPRY domain of human SPSB2 (residues 22-220) (human, UniProt Q99619 22-220); assay: ITC; 100 μM cR7 or cR9 titrated into 10 μM SPSB2; 25 °C; 50 mM Tris-HCl pH 7.5, 150 mM NaCl, 5 mM DTT; single binding site model; conditions: both partners purified
T2 construct: SPRY domain of human SPSB2, UniProtKB Q99619, residues 22-220; also called SPRY domain-containing SOCS box protein 2; source: recombinant, purified (Ni-NTA; complexes with peptide by gel filtration on Superdex 75); preparation previously described [26]
T2 sequence (looked up): T1 sequence (Q99619 22-220)

[6] = molecular target: T3, GST-tagged SPRY domain of human SPSB1 (residues 28-232) (human, UniProt Q96BD6 28-232); assay: pull-down; competition: 1 μM or 10 μM cyclic peptide added to the RAW 264.7 lysate with 2 μg/mL GST-tagged SPRY domain for 2 h; iNOS recovered on glutathione sepharose 4B read by Western blot; conditions: both partners purified
T3 construct: SPRY domain of human SPSB1, UniProtKB Q96BD6, residues 28-232; Cloned into pGEX-4T-2; also called SPSP1; source: recombinant, induced with IPTG in LB medium, purified (glutathione sepharose 4B)
T3 sequence (looked up): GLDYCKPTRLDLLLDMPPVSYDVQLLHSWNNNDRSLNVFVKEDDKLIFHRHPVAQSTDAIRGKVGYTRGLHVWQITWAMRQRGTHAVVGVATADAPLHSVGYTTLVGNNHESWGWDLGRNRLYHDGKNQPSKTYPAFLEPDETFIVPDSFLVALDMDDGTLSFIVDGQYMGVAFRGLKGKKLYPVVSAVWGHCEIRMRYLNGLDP

[7] = molecular target: T4, GST-tagged SPRY domain of human SPSB4 (residues 28-232) (human, UniProt Q96A44 28-232); assay: as above; conditions: both partners purified
T4 construct: SPRY domain of human SPSB4, UniProtKB Q96A44, residues 28-232; Cloned into pGEX-4T-2; source: recombinant, induced with IPTG in LB medium, purified (glutathione sepharose 4B)
T4 sequence (looked up): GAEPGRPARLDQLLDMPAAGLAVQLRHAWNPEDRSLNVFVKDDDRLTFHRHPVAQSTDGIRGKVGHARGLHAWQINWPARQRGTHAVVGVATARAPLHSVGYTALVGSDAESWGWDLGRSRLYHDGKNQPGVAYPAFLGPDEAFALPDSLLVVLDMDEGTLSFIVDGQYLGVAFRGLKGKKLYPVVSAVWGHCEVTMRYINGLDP

[8] = overall comparison of cR7, cR8 and cR9, 1 or 10 μM, Western blot

CC[C@H](C)[C@@H]1NC(=O)[C@H](CC(=O)O)NC(=O)CNC(=O)[C@H](CCCNC(=N)N)NC(=O)[C@H](CC(N)=O)NC(=O)[C@H](CC(N)=O)NC(=O)[C@H](CC(N)=O)NC1=O [cR7, cyclo(RGDINNN)] (cyclo(RGDINNN))
displacement of full-length iNOS from SPSB2 [1]: able to displace full-length iNOS binding to SPSB2 | overall inhibition of SPSB2-iNOS interaction, relative [1, 8]: stronger inhibition | SPSB2-binding affinity, fold higher than cR8 [2]: ~ 6.5 fold | inhibition of SPSB1-iNOS interaction [3]: can effectively inhibit SPSB1-iNOS interaction | overall inhibition of SPSB1-iNOS interaction, relative [3, 8]: stronger inhibition | displacement of full-length iNOS from SPSB4 [4]: able to displace full-length iNOS binding to SPSB4 | overall inhibition of SPSB4-iNOS interaction, relative [4, 8]: stronger inhibition

CC[C@H](C)[C@@H]1NC(=O)[C@H](CC(=O)O)NC(=O)CNC(=O)[C@H](CCCNC(=N)N)NC(=O)[C@H](CCC(=O)O)NC(=O)[C@H](C(C)C)NC(=O)[C@H](CC(N)=O)NC(=O)[C@H](CC(N)=O)NC(=O)[C@H](CC(N)=O)NC1=O [cR9, cyclo(RGDINNNVE)] (cyclo(RGDINNNVE))
displacement of full-length iNOS from SPSB2 [1]: able to displace full-length iNOS binding to SPSB2 | SPSB2-binding affinity, fold higher than cR8 [2]: ~ 2 fold | inhibition of SPSB1-iNOS interaction [3]: can effectively inhibit SPSB1-iNOS interaction | displacement of full-length iNOS from SPSB4 [4]: able to displace full-length iNOS binding to SPSB4

B1: cR7, cyclo(RGDINNN) (peptide)
peptide: RGDINNN
modifications: head-to-tail amide-cyclized
notes: Cyclic: the last residue is amide-bonded to the first; source: synthetic peptide (GL Biochem Ltd.)
Kd [5]: 103 nM | stoichiometry N [5]: 1 | binding result [6]: binds | binding result [7]: binds

B2: cR9, cyclo(RGDINNNVE) (peptide)
peptide: RGDINNNVE
modifications: head-to-tail amide-cyclized
notes: designed cyclic peptide: RGD motif joined to the iNOS-derived stretch DINNNVE; Cyclic: the last residue is amide-bonded to the first; source: synthetic peptide (GL Biochem Ltd.)
Kd [5]: 308 nM | binding result [6]: binds | binding result [7]: binds
